Source: article PMC7645366 (EMBO Molecular Medicine, 2020)
Where “and” joins values, the source holds several entries; their conditions need not be identical. Equal entries are not always repeated. No end group written: not given here.

Tests used:
PLY = PLY (Streptococcus pneumoniae serotype 4, UniProt P0C2J9); type: binding
SLO [1] = target: T1, SLO (Streptococcus pyogenes serotype M1, UniProt P0C0I3); type: binding
BSA = assay: ELISA, binding of plate-bound MRC-1 peptides to BSA (negative control); settings: plate-bound peptide
Experimental: Briefly, 96‐well flat‐bottomed plates (Sigma, UK) were coated overnight with 10 μM of MRC‐1 peptides in coating buffer (15 mM Na2CO3, 35 mM NaHCO3, pH 9.6). Wells were blocked with 200 μl of 10% (v/v) FBS in PBS for 2 h and then washed three times with PBS, 0.05% (v/v) Tween 20 (Sigma). 50 μl of purified PLY, LLO, and SLO (0–1 μM) in PBS was added and incubated at 37°C for 1 h. 1 μM BSA was added to control wells. Wells were washed with PBS and bound proteins were detected by adding 100 μl of mouse α‐PLY (1:1,000), mouse α‐SLO (1:400), and rabbit α‐LLO (1:1,500) (Abcam), respectively, in blocking buffer. Plates were incubated with 100 μl of secondary anti‐rabbit/anti‐mouse IgG HRP (1:2,000) dilution in blocking buffer. Bound antibodies were detected by adding 100 μl of tetramethylbenzidine substrate solution for 30 min. Phosphoric acid (1 M) was used as the stop solution and absorbance was measured at 450 nm.

SLO [2] = target: T1, SLO; type: cell-based
S. pyogenes type M1T1 = assay: Hemolytic activity of whole bacteria, S. pyogenes; type: cell-based, Streptococcus pyogenes; settings: 100 μM peptide
Experimental: (§1) All samples were assayed in triplicates.

L. monocytogenes type 1 = assay: Hemolytic activity of whole bacteria, L. monocytogenes; type: cell-based, Listeria monocytogenes; settings: 100 μM peptide
Experimental: as §1

LLO [3] = target: T2, LLO (Listeria monocytogenes serovar 1/2a, UniProt P13128); assay: LDH cytotoxicity assay, THP-1 macrophages, LLO; type: cell-based; settings: 100 μM, 18 h; for % cytotoxicity relative to positive control (lysis buffer), LDH: THP-1, LLO 0.5 μg/ml
T2 sequence (P13128 25-529): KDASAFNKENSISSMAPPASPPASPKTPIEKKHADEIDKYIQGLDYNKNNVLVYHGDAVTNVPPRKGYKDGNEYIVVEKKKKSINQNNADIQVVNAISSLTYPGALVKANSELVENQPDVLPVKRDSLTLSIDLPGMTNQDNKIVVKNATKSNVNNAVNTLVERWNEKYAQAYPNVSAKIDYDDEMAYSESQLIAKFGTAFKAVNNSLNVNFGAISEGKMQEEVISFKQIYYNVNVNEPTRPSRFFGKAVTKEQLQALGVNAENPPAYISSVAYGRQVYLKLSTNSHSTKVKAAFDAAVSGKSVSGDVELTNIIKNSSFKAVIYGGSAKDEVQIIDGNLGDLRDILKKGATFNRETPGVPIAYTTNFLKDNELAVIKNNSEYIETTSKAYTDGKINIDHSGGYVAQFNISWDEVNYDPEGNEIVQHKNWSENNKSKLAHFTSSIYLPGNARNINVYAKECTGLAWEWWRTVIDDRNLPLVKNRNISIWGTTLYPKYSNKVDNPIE
Experimental: (§2) Human monocytic leukemia THP‐1 cells (ATCC TIB‐202) were cultivated in R10 medium and maintained at density of 10^6 cells/ml. For differentiation into macrophages, THP‐1 cells were treated for 48 h with 20 ng/ml of phorbol myristate acetate (Sigma).
Cytotoxicity was determined by measuring the activity of lactate dehydrogenase enzyme released into the culture supernatant using the Cytotoxicity Detection kit (Roche) according to the manufacturer's instructions. The percentage cytotoxicity was calculated by ratio to 100% lysis control (0.1% saponin).

LLO [4] = target: T2, LLO; assay: Live imaging of cytolysis of THP-1 macrophages by LLO; type: cell-based; settings: 0.5 μg/ml LLO, 100 μM, 20 min
SLO [5] = target: T1, SLO; type: cell-based; remark: listed apart in the source
LLO [6] = target: T2, LLO; assay: Cytokine ELISA, THP-1 macrophages stimulated with LLO; type: cell-based; settings: 18 h; for IL-8 levels in THP-1 macrophages: LLO 0.5 μg/ml, 100uM
Experimental: as §2

SLO [7] = target: T1, SLO; type: cell-based; remark: listed apart in the source
S.pneumoniae T4R = assay: Co-localization of intracellular T4R with MRC-1 and LC3B in DCs; type: cell-based, Streptococcus pneumoniae; settings: for % bacteria colocalized with MRC-1 / % bacteria colocalized with LC3B / number of bacteria (of n=50) colocalized with LC3B / number of bacteria (of n=50) colocalized with MRC-1: T4R in DCs
S.pneumoniae T4RΔply = assay: Co-localization of intracellular T4RΔply with MRC-1 and LC3B in DCs; type: cell-based, Streptococcus pneumoniae; settings: for % bacteria colocalized with MRC-1 / % bacteria colocalized with LC3B / number of bacteria (of n=50) colocalized with LC3B / number of bacteria (of n=50) colocalized with MRC-1: T4RΔply in DCs
LC3B = type: cell-based, human
S. pneumoniae T4 = assay: Mouse intranasal infection (pneumonia) model: survival, lung bacterial load, lung cytokines
Experimental: Six‐week‐old male C57BL/6 wild‐type mice were used (Charles River, Germany). The study included 10 mice/individual group which were randomly assigned to the different treatment groups. Sample size calculations were determined according to previous experience (Subramanian et al, 2019b). […] The mice were checked at least twice every day; morning at 9 am (referred as “early check”) and evening at 7 pm (referred as “late check”). Post‐mortem, lungs were collected and washed in PBS and homogenized by passing through the 100‐μm cell strainer. Bacterial counts were determined from lung homogenates by viable count on blood agar plates. Aliquots of lung homogenates were frozen at −80°C for cytokine quantification by ELISA.
The levels of TNF‐α, IL‐8, and IL‐12 (p70) in the culture supernatants and mouse lung tissue were analyzed using the OptEIA ELISA kit (BD Biosciences) following the manufacturer's instructions.

T1 sequence (P0C0I3 34-571 limits assumed): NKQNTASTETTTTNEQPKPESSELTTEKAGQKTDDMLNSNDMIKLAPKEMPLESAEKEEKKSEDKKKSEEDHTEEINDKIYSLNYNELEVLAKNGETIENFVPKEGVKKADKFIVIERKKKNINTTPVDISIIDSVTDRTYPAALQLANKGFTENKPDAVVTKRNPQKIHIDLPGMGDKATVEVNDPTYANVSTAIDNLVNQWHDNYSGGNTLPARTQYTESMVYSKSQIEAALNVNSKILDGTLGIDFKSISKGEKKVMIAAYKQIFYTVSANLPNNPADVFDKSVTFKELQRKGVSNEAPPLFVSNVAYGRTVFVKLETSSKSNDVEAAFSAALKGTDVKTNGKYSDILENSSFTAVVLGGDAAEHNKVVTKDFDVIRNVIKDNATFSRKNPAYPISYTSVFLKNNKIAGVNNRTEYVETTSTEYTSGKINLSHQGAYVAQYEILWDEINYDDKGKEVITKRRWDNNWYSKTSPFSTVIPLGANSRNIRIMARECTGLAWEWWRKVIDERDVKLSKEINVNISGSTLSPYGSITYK
Chain of PLY (P0C2J9 whole entry, looked up): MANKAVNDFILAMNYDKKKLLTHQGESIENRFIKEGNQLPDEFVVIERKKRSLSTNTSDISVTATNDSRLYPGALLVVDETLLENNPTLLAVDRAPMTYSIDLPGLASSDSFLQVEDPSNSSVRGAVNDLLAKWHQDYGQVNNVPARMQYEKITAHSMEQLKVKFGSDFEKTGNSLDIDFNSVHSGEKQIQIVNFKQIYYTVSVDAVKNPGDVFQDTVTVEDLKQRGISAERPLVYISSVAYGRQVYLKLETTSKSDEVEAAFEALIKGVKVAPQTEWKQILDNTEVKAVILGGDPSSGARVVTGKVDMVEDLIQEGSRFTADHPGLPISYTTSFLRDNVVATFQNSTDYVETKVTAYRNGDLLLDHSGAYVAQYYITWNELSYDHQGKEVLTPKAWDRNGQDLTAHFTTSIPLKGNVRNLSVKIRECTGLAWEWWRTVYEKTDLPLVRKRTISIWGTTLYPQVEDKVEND

## FTWSDGSPVSYEN [P2]
PLY
  binding to PLY in ELISA: bind dose‐dependently
SLO [1]
  binding to SLO in ELISA: bound dose‐dependently
BSA
  binding to BSA in ELISA: not to BSA
SLO [2]
  inhibition of hemolysis induced by purified SLO: up to 50%
SLO [2]; read-out: ED50 (median effective dose) vs purified SLO, human, blood, 60 min
  IC50: 9.8 µM
S. pyogenes type M1T1
  hemolytic activity of S. pyogenes type M1T1: significantly reduced
L. monocytogenes type 1
  hemolytic activity of L. monocytogenes type 1: significantly reduced
LLO [3]; THP-1, 0.5 μg/ml toxin
  cell death of macrophages induced by LLO, LDH release: significantly reduced cell death
LLO [3]; experiment 1 of 4
  % cytotoxicity relative to positive control (lysis buffer), LDH: 50.96%
LLO [3]; experiment 2 of 4
  % cytotoxicity relative to positive control (lysis buffer), LDH: 55.95%
LLO [3]; experiment 3 of 4
  % cytotoxicity relative to positive control (lysis buffer), LDH: 54.18%
LLO [3]; experiment 4 of 4
  % cytotoxicity relative to positive control (lysis buffer), LDH: 52.24%
LLO [4]
  cytolysis by LLO in live imaging: protected the cells from cytolysis
SLO [5]
  cytolysis by SLO in live imaging: protected the cells from cytolysis
LLO [6]; 0.5 μg/ml toxin, 100 μM peptide
  release of IL‐8, TNF‐α and IL‐12 by THP-1 macrophages, LLO: significantly reduced
LLO [6]; experiment 1 of 3
  IL-8 levels in THP-1 macrophages: 437.8 pg/mL
LLO [6]; experiment 2 of 3
  IL-8 levels in THP-1 macrophages: 441.8 pg/mL
LLO [6]; experiment 3 of 3
  IL-8 levels in THP-1 macrophages: 448.5 pg/mL
SLO [7]
  release of IL‐8, TNF‐α and IL‐12 by THP-1 macrophages, SLO: significantly reduced
SLO [7]; 100uM, 18 h
  IL-8 levels in THP-1 macrophages: 426.5 pg/mL and 475.1 pg/mL and 490.7 pg/mL
S.pneumoniae T4R; DCs, 100 μM peptide
  co-localization of intracellular T4R with MRC‐1 and LC3B: did not co‐localize with MRC‐1, but co‐stained with LC3B
S.pneumoniae T4R; MOI 10, 100 μM peptide, n=50 bacteria, experiment 1 of 2
  % bacteria colocalized with MRC-1: 30%
S.pneumoniae T4R; experiment 1 of 2
  % bacteria colocalized with LC3B: 70%
  number of bacteria (of n=50) colocalized with LC3B: 35
  number of bacteria (of n=50) colocalized with MRC-1: 15
S.pneumoniae T4R; experiment 2 of 2
  % bacteria colocalized with LC3B: 76%
  % bacteria colocalized with MRC-1: 24%
  number of bacteria (of n=50) colocalized with LC3B: 38
  number of bacteria (of n=50) colocalized with MRC-1: 12
S.pneumoniae T4RΔply; DCs, 100 μM peptide, MOI 10, 2 h
  co-localization of T4RΔply in DCs: had no effect
S.pneumoniae T4RΔply; 100 μM peptide, n=50 bacteria, experiment 1 of 2
  % bacteria colocalized with MRC-1: 6%
S.pneumoniae T4RΔply; experiment 1 of 2
  % bacteria colocalized with LC3B: 94%
  number of bacteria (of n=50) colocalized with LC3B: 47
  number of bacteria (of n=50) colocalized with MRC-1: 3
S.pneumoniae T4RΔply; experiment 2 of 2
  % bacteria colocalized with LC3B: 92%
  % bacteria colocalized with MRC-1: 8%
  number of bacteria (of n=50) colocalized with LC3B: 46
  number of bacteria (of n=50) colocalized with MRC-1: 4
LC3B
  expression of LC3B-I and LC3B-II, western blotting: induced higher expression
S. pneumoniae T4; Mouse 1 of its group
  Mouse survival, death recorded: 1
S. pneumoniae T4; Mouse 1 of its group, intranasal 2 × 10^6 CFU T4 with 5 μg peptide/mouse (25 μg CaP NPs)
  Mouse survival, Time (coded): 4
S. pneumoniae T4; Mouse 2 of its group
  CFU/ml in mouse lung homogenates: 160000000 CFU/ml
  Mouse survival, Time (coded): 4
  Mouse survival, death recorded: 1
S. pneumoniae T4; Mouse 3 of its group
  CFU/ml in mouse lung homogenates: 160000000 CFU/ml
  Mouse survival, Time (coded): 5
  Mouse survival, death recorded: 1
S. pneumoniae T4; Mouse 4 of its group
  CFU/ml in mouse lung homogenates: 180000000 CFU/ml
  Mouse survival, Time (coded): 6
  Mouse survival, death recorded: 0
S. pneumoniae T4; Mouse 5 of its group
  CFU/ml in mouse lung homogenates: 100000000 CFU/ml
  Mouse survival, Time (coded): 4
  Mouse survival, death recorded: 1
S. pneumoniae T4; Mouse 6 of its group
  CFU/ml in mouse lung homogenates: 2.6E+07 CFU/ml
  Mouse survival, Time (coded): 4
  Mouse survival, death recorded: 1
S. pneumoniae T4; Mouse 7 of its group
  CFU/ml in mouse lung homogenates: 2.5E+07 CFU/ml
  Mouse survival, Time (coded): 4
  Mouse survival, death recorded: 1
S. pneumoniae T4; Mouse 8 of its group
  CFU/ml in mouse lung homogenates: 1.7E+07 CFU/ml
  Mouse survival, Time (coded): 4
  Mouse survival, death recorded: 1
S. pneumoniae T4; Mouse 9 of its group
  CFU/ml in mouse lung homogenates: 1.7E+07 CFU/ml
  Mouse survival, Time (coded): 4
  Mouse survival, death recorded: 1
S. pneumoniae T4; Mouse 10 of its group
  CFU/ml in mouse lung homogenates: 1.0E+07 CFU/ml
  Mouse survival, Time (coded): 5
  Mouse survival, death recorded: 1
S. pneumoniae T4; animal in data line 1
  IL-12 levels in mouse lung homogenates: 4502.5 pg/mL
S. pneumoniae T4; animal in data line 2
  IL-12 levels in mouse lung homogenates: 3606.25 pg/mL
  TNF-a levels in lung: 645.91 pg/mL
S. pneumoniae T4; animal in data line 3
  IL-12 levels in mouse lung homogenates: 5321.25 pg/mL
  TNF-a levels in lung: 377.50 pg/mL
S. pneumoniae T4; animal in data line 4
  IL-12 levels in mouse lung homogenates: 8600 pg/mL
  TNF-a levels in lung: 853.64 pg/mL
S. pneumoniae T4; animal in data line 5
  IL-12 levels in mouse lung homogenates: 7346.25 pg/mL
  TNF-a levels in lung: 703.86 pg/mL
S. pneumoniae T4; animal in data line 6
  IL-12 levels in mouse lung homogenates: 6002.5 pg/mL
  TNF-a levels in lung: 679.08 pg/mL
S. pneumoniae T4; animal in data line 7
  IL-12 levels in mouse lung homogenates: 5505 pg/mL
  TNF-a levels in lung: 828.95 pg/mL
S. pneumoniae T4; animal in data line 8
  IL-12 levels in mouse lung homogenates: 3275 pg/mL
  TNF-a levels in lung: 612.89 pg/mL
S. pneumoniae T4; animal in data line 9
  IL-12 levels in mouse lung homogenates: 4967.5 pg/mL
  TNF-a levels in lung: 782.63 pg/mL
S. pneumoniae T4; animal in data line 10
  IL-12 levels in mouse lung homogenates: 8335 pg/mL
  TNF-a levels in lung: 757.37 pg/mL
S. pneumoniae T4; infected mice
  levels of TNF‐α and IL‐12 in the lung tissue: significantly reduced
S. pneumoniae T4; infected mice, post‐sacrifice, animal in data line 1
  TNF-a levels in lung: 263.18 pg/mL
S. pneumoniae T4; intranasal T4 2 × 10^6 CFUs, 5 μg peptide/mouse
  mouse survival: prolonged survival
S. pneumoniae T4; post‐mortem, Mouse 1 of its group
  CFU/ml in mouse lung homogenates: 160000000 CFU/ml
